Measured values as given in patent publication US12269859B2, “Synthetic immune receptors and methods of use thereof” (Angeles Therapeutics, Inc., priority 2016, dated 2025).
Entries after “also recorded” stand apart in the source; their conditions may differ.

Columns and labels:
RAJI cells = assay: GLuc cytotoxicity assay, RAJI-GLuc cells; assay type: cell-based, human
Protocol: (D) Assay for Cytotoxic Activity in vitro and in vivo: The uninfected T cells or those expressing a control vector or SIR are cocultured with the target cell lines expressing a non-secretory form of a luciferase (such as GLuc, NLuc, Turboluc 16 etc.) for 4-96 hours and induction of cell lysis examined by measuring the luciferase activity as described in PCT/US17/52344. Alternate methods for measurement of cytotoxic activity (e.g., ^51Cr release assay or LDH release assay) can be used as well. The activity of T cells expressing a SIR can be also assayed in vivo using appropriate xenograft models in immunodeficient mice.
Cell death assay. To measure cell death, a novel assay based on ectopic cytosolic expression of Gluc or NLuc was utilized as described in PCT/US17/52344 “A Non-Radioactive Cytotoxicity Assay”. The method involves expression of a reporter in a target cells in a manner so that it is preferentially retained within the healthy cells but is either released from dead and dying cells or whose activity can be preferentially measured in dead and dying cells. The preferred reporter for this assay are 1) non-secreted forms of luciferases from the copepods, such as Gaussia princeps, Pleuromamma abdominalis, Metridia pacifica, Metridia curticauda, Metridia asymmetrica, Metridia okhotensis, Metridia longa, Lucicutia ovaliformis, Heterorhabdus tanneri, and Pleuromamma scutullata 2) engineered luciferase reporters from deep sea shrimp, such as NanoLuc. The sequence of several such reporter vectors is provided in SEQ ID NO: 881 to SEQ ID NO: 887. The above vectors were used to generate retrovirus and lentiviruses which in turn were used to generate polyclonal population of several target cell lines stably expressing GLuc, NLuc, TurboLuc or MLuc7 following selection with appropriate antibiotics. Unless indicated otherwise, the target cells stably expressing the different luciferases (GLuc, Nluc, MLuc7 or TurboLuc16) were plated in triplicate in a 384 well plate in the media used for growing the target cells. Target cells which grow in suspension were generally plated at a concentration of 2-3×10^4 per well, while target cells which grow as adherent monolayers were plated at a concentration of 1-2×10^4 per well. Unless indicated otherwise, the target cells were cocultured with the genetically modified T cells (i.e. those expressing SIR or CAR) at an Effector:Target (E:T) ratio varying from 1:1 to 10:1 for 4 hours to 96 hours. In the case target cells grow as adherent cells (e.g., HeLa cells), they were allowed to attach to the bottom of the wells overnight before the T cells were added. T cells mediated induction of lysis of target cells was assayed by increase of luciferase activity as measured by BioTek synergy plate reader by directly injecting 0.5×CTZ assay buffer containing native coeloentrazine (Nanaolight).
CTZ assay. A 100× stock solution of native coelenterazine (CTZ; Nanolight, cat #303) was made by dissolving 1 mg of lyophilized CT powder in 1.1 ml of 100% Methanol supplemented with 30 μl of 6N HCl to avoid oxidation of CTZ with time. To make CTZ assay buffer, the 100× stock solution of CTZ was diluted to 0.5× concentration in PBS. Unless indicated otherwise, a total volume of 15 μl of the CTZ assay buffer (as prepared above) was added to each well of a 384-well white plate (Greiner, 384 well white plate cat #781075) containing cells expressing the non-secretory form of the luciferase in approximately 50-60 μl volume of medium and plates were read for luminescence in endpoint mode using BioTek synergyH4 plate reader. For 96 well plates, cells were plated in 200 μl of media and approximately 50 μl of 0.5×CTZ assay buffer was added. Unless indicated otherwise, the 0.5×CTZ assay buffer was used for assaying the activity of GLuc, TurboLuc16, and MLuc7. The CTZ assay buffer (diluted to 0.125× concentration) was also used for measurement of NLuc activity in some experiments (see below).

[1] = tested on: target antigen-expressing cell line; assay: Jurkat NFAT-GFP assay, coculture with target cell lines expressing the respective target antigen (summary Table 10A); assay type: cell-based, human; parameters: key: The signs +/−, +, 2+ etc. after the name of the cell lines indicate the relative degree of positivity on the Jurkat-NFAT-GFP assay as measured by the % GFP positive cells; +: relative degree of positivity on the Jurkat-NFAT-GFP assay as measured by the % GFP positive cells; 2+: relative degree of positivity on the Jurkat-NFAT-GFP assay as measured by the % GFP positive cells; settings: relative % GFP positive cells; for NFAT-GFP ASSAY Positive Cell lines: RAJI: SIR-expressing Jurkat-NFAT-GFP cells cocultured with RAJI; for NFAT-GFP ASSAY Positive Cell lines: NALM6: SIR-expressing Jurkat-NFAT-GFP cells cocultured with NALM6
Protocol: (B) Induction of NFAT promoter driven GFP expression. The control vector- and SIR-expressing Jurkat-NFAT-GFP cocultured for 4-24 hours with the target antigen-expressing cell line (described above) and their ability to bind to the target antigen is assayed by measuring induction of GFP expression using Flow Cytometry. Cellular supernatant is collected and assayed for the induction of cytokines (e.g., IL2).
Jurkat NFAT-GFP Assay For Synthetic Immune Receptors. The Jurkat-NFAT-GFP cells are engineered in such a way that the IL-2 promoter, which carries NFAT binding sites, is cloned upstream of the GFP gene. These cells have been used to study signaling via TCR and CAR. The different SIRs were stably expressed in Jurkat NFAT-GFP cells by lentiviral mediated gene transfer, followed by selection with puromycin. The SIR-expressing Jurkat-NFAT-GFP cells were cocultured with the target cells at E:T ratio of approximately 1:2 for approximately 4 hours to 18 hours. When the interaction between SIRs and their target antigen results in activation of the NFAT pathway, GFP expression is induced.
Induction of GFP expression by coculturing of Jurkat-NFAT-GFP cells expressing different SIR constructs and the different target cells was studied essentially as described previously (Wu, Roybal, Puchner, Onuffer, & Lim, 2015). GFP expression was monitored by FACS analysis. A few representative examples of this assay are shown in the FIG. 13A-B. In panel A, control Jurkat-NFAT-GFP cells or those expressing SIRs targeting CD19 (clone ID 051716-I08), MPL (Clone ID: 040716-A07) and BCMA (Clone ID: 011116-A07) were incubated with RAJI (top), HEL (middle) or U266 (bottom) cells, respectively. […] In panel B, Jurkat cells expressing SIR targeting CDH6 (Clone ID: 051716-J05), CD276 (Clone ID: 050516-Q06) and Her2/neu (Clone ID: 050516-I03) were incubated with SKOV3 (top) and […] (middle and bottom) cells, respectively. […] The Jurkat-NFAT-GFP cells were engineered to express different SIRs targeting other antigens and the experiment repeated upon coculture with the target cells expressing their respective target antigen. The Jurkat-NFAT-GFP (parental) cells were used as control. The names of different SIRs, their SEQ ID NOs, component antigen binding domains and TCR chains can be determined by reference to Tables 7A-7H. A SIR is considered positive in the assay in case the SIR expressing Jurkat-NFAT-GFP cells show greater % GFP positive cells when cultured with the target cell line as compared to parental Jurkat-NFAT-GFP cells. […] The signs +/−, +, 2+ etc. after the name of the cell lines indicate the relative degree of positivity on the Jurkat-NFAT-GFP assay as measured by the % GFP positive cells after culture of the SIR expressing Jurkat-NFAT-GFP cells with that cell line. […] In addition, great diversity of response against the same target cell line is observed with Jurkat cells expressing SIRs containing different antigen binding domains targeting the same antigen (e.g., SIRs having antigen binding domains derived form different CD19 antibodies) even when the SIRs share the same TCR chains and linkers. Finally, Jurkat cells expressing SIRs targeting different antigens (e.g. CD19 vs CD20) show a diversitiy of response when exposed to the same target cell line. Thus, a diverse immune response can be generated against a single target cell by combining SIRs with different TCR chains, linkers, antigen binding domains and target specificity. Table 10A also summarizes the results of GLuc based T cell cytotoxicity assay observed with different SIRs when exposed to their target cell lines. […]

Row | Compound | lysis of target cells by increase of GLuc activity (in words) (RAJI cells; E:T 10:1, 4 hours) | NFAT-GFP ASSAY Positive Cell lines: RAJI [1] | other results
1 | C[C@@H]1CC[C@@]2(OC1)O[C@H]1[C@@H](O)[C@H]3[C@@H]4CC[C@H]5C[C@@H](O[C@@H]6O[C@H](CO)[C@H](O[C@@H]7O[C@H](CO)[C@@H](O)[C@H](O[C@@H]8OC[C@@H](O)[C@H](O)[C@H]8O)[C@H]7O[C@@H]7O[C@H](CO)[C@H](O)[C@H](O[C@@H]8O[C@H](CO)[C@@H](O)[C@H](O)[C@H]8O)[C@H]7O)[C@H](O)[C@H]6O)[C@H](O)C[C@]5(C)[C@H]4CC[C@]3(C)[C@H]1[C@@H]2C [digitonin, Digitonin, reference compound] | – | – | mean Gluc values (RAJI cells; E:T 10:1, 4 hours): 3869
2 | CD8SP-CD19Bu12-vL-Gly-Ser-Linker-CD19Bu12-vH-V5-[hTCRb-WT]-F-P2A-PAC [SEQ ID NO:1022] | failed to induce lysis of RAJI cells | RAJI (+) | –
3 | CD8SP-CD20-2F2-vL-[canine-TCRb-opt]-F-P2A-CD20-2F2-vH-[canine-TCRa-opt]-F-F2A-PAC [SEQ ID NO:1113] | effective induction of target cell lysis | RAJI (+/−) | –
4 | CD8SP-FMC63-scFv-V5-[TCRb-S57C-opt1]-F-P2A-SP-FMC63-scFv-MYC-[TCRa-T48C-opt1]-T2A-Pac [SEQ ID NO:910] | – | RAJI (+/−) | –
5 | CD8SP-FMC63-vL-G4Sx2-[hTCRa-S61R-opt]-F-F2A-FMC63-vH-G4Sx2-[hTCRb-R79G-opt]-F-P2A-PAC [SEQ ID NO:955] | – | RAJI (+/−) | –
6 | CD8SP-FMC63-vL-Gly-Ser-Linker-FMC63-vH-Myc-[preTCRa-Del48]-F-F2A-PAC [SEQ ID NO:914] | – | RAJI (+) | –
7 | CD8SP-FMC63-vL-Gly-Ser-Linker-FMC63-vH-V5-[hTCRb-S57C-opt]-F-P2A-PAC [SEQ ID NO:912] | failed to induce lysis of RAJI cells | RAJI (+/−) | –
8 | CD8SP-FMC63-vL-Gly-Ser-Linker-FMC63-vH-V5-[hTCRb-S57C-opt]-F-P2A-SP-Myc-[hTCRa-T48C-opt]-F-F2A-PAC [SEQ ID NO:991] | – | +/− | NFAT-GFP ASSAY Positive Cell lines: NALM6 [1]: +
9 | CD8SP-FMC63-vL-Gly-Ser-Linker-FMC63-vH-V5-[hTCRb-WT]-F-P2A-PAC [SEQ ID NO:911] | – | RAJI (+) | –
10 | CD8SP-FMC63-vL-Myc2-[hTCRb-R79G-opt]-F-P2A-SP-FMC63-vH-Myc4-[hTCRa-S61R-opt]-F-F2A-PAC [SEQ ID NO:937] | – | RAJI (+/−) | –
11 | CD8SP-FMC63-vL-Myc-[hTCRa-T48C-opt1]-F-F2A-FMC63-VH-V5-[hTCRb-C57C-opt1]-F-P2A-PAC [SEQ ID NO:902] | can induce effective lysis of the target cells | – | –
12 | CD8SP-FMC63-vL-Streptag-[hTCRb-R79G]-F-P2A-SP-FMC63-vH-Myc4-[hTCRa-S61R]-F-F2A-PAC [SEQ ID NO:938] | – | RAJI (+/−) | –
13 | CD8SP-FMC63-vL-V5-[hTCRb-S57C-opt]-F-P2A-SP-FMC63-vH-Myc-[hTCRa-T48C-opt]-F-F2A-PAC [SEQ ID NO:951] | induced effective target cell lysis; also recorded: Modest cytotoxicity | – | –
14 | CD8SP-FMC63-vL-V5-[hTCRb-WT]-F-P2A-SP-FMC63-vH-Myc-[hTCRa-WT]-F-F2A-PAC [SEQ ID NO:922] | fails to cause significant target cell lysis | RAJI (2+) | lysis of target cells by increase of GLuc activity (in words) (RAJI cells; E:T 1:1, 96 hours): fails to cause significant target cell lysis
15 | CD8SP-FMC63-vL-V5-[mTCRb-opt]-F-P2A-SP-FMC63-vH-Myc-[mTCRa-opt]-F-F2A-PAC [SEQ ID NO:953] | increase in GLuc activity | – | lysis of target cells by increase of GLuc activity (in words) (RAJI cells; E:T 1:1, 96 hours): increase in GLuc activity
16 | IgHSP-FMC63-vH-[hTCRb-C57C-opt]-F-P2A-CD8SP-FMC63-VL-MYC-[hTCRa-T48C-opt]-F-F2A-Pac [SEQ ID NO:901] | can also induce effective lysis of the target cells | RAJI(2+), NALM6(2+) | NFAT-GFP ASSAY Positive Cell lines: NALM6 [1]: RAJI(2+), NALM6(2+)
